Legend:
Format in all cases: in vivo
[1] = tested on: southern armyworm (Spodopetra eridania Cramer); test: Mite/insect screen, sprayed squash leaves (SAW); conditions: Spodoptera eridania, percent mortality, read-out: SAW RESULTS %; for mortality at 200 ppm: spray rate 200 ppm; for mortality at 400 ppm: spray rate 400 ppm
Procedure, shortened: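 Compounds dissolved in acetone/alcohol with TOXIMUL R/S emulsifiers, diluted with water to test concentrations, and sprayed to runoff on both leaf surfaces at 10 psi, then dried 1 h. Excised treated squash leaves given southern armyworm larvae; aphid and spider mite tests on sprayed squash cotyledons. Percent mortality and phytotoxicity scored after standard exposure.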

[2] = tested on: Cercospora beticola (leaf spot); test: Greenhouse Test 1, foliar spray fungicide screen (LEAF SPOT), host sugar beet; conditions: disease control rating, 400 ppm (+++ at 100 ppm)
[3] = tested on: Pyricularia oryzae (rice blast); conditions: disease control rating, foliar spray, host rice; 400 ppm (+++ at 100 ppm)
[4] = tested on: Erysiphe graminis tritici (powdery mildew); test: Greenhouse Test 1, foliar spray fungicide screen (POWD MDEW), host wheat; conditions: disease control rating, 400 ppm (+++ at 100 ppm)
[5] = tested on: Pseudoperonospora cubensis (downy mildew); test: Greenhouse Test 1, foliar spray fungicide screen (DOWN MDEW), host squash; conditions: disease control rating, 400 ppm (+++ at 100 ppm)
[6] = tested on: Septoria tritici (leaf blotch); test: Greenhouse Test 1, foliar spray fungicide screen (LEAF BLOT), host wheat; conditions: disease control rating, 400 ppm (+++ at 100 ppm)
[7] = tested on: Venturia inaequalis (apple scab); test: Greenhouse Test 1, foliar spray fungicide screen (APPL SCAB), host apple seedling; conditions: disease control rating, 400 ppm (+++ at 100 ppm)
[8] = tested on: Puccinia recondita tritici (leaf rust); test: Greenhouse Test 1, foliar spray fungicide screen (LEAF RUST), host wheat; conditions: disease control rating, 400 ppm (+++ at 100 ppm)
[9] = tested on: melon aphids (Aphis gossypii Glover); test: Mite/insect screen, sprayed squash cotyledons (MA); conditions: Aphis gossypii, percent mortality, read-out: MA RESULTS %; for mortality at 200 ppm: spray rate 200 ppm; for mortality at 400 ppm: spray rate 400 ppm
Procedure, shortened: (§1)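 Mortality and phytotoxicity read after standard exposure periods on sprayed squash: cotyledons for melon aphids and twospotted spider mites, excised leaves placed with southern armyworm larvae. Spray solutions were water dilutions of acetone/alcohol stocks containing TOXIMUL R and S emulsifiers, applied to runoff at 10 psi and air-dried one hour.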

[10] = tested on: Southern corn rootworm (Diabrotica undecimpuctata howardi Barber); test: Mite/insect screen, soil treatment (CRW); conditions: Diabrotica, percent mortality, soil treatment, read-out: CRW RESULTS %; for mortality at 12 ppm: CRW rate 12.00 ppm; for mortality at 24 ppm: CRW rate 24.00 ppm
Procedure, shortened: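 Compounds dissolved in acetone/alcohol (50:50) with Toximul R/S emulsifiers, diluted with water. Soil (15 g, with presoaked corn seed) treated with 1 mL test solution, dried 6–12 h, then five 2–3 instar larvae added; held at 23°C. Percent mortality and phytotoxicity scored after standard exposure periods.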

[11] = tested on: Botrytis cinerea (gray mold); test: Greenhouse Test 1, foliar spray fungicide screen (GRAY MOLD), host grape berries; conditions: disease control rating, 400 ppm (+++ at 100 ppm)
[12] = tested on: Twospotted spider mites (Tetranychus urticae Koch); test: Mite/insect screen, sprayed squash cotyledons (SM); conditions: Tetranychus urticae, percent mortality, read-out: SM RESULTS %; for mortality at 200 ppm: spray rate 200 ppm; for mortality at 400 ppm: spray rate 400 ppm
Procedure, shortened: as §1

| Compound | mortality at 200 ppm [1] [%] | LEAF SPOT [2] | RICE BLAST [3] | POWD MDEW [4] | DOWN MDEW [5] | LEAF BLOT [6] | APPL SCAB [7] | LEAF RUST [8] | mortality at 200 ppm [9] [%] | mortality at 12 ppm [10] [%] | GRAY MOLD [11] | mortality at 200 ppm [12] [%] | mortality at 400 ppm [1] [%] | mortality at 400 ppm [9] [%] | mortality at 24 ppm [10] [%] | mortality at 400 ppm [12] [%] |
| --- | --- | --- | --- | --- | --- | --- | --- | --- | --- | --- | --- | --- | --- | --- | --- | --- |
| c1ccc(CCCNc2nc(NCCCc3ccccc3)c3ccccc3n2)cc1 [Example 24, N,N'-bis(3-phenylpropyl)-2,4-quinazolinediamine] | 0 | - (- = 0-19% control at 400 ppm) | + (+ = 20-89% control at 400 ppm) | + (+ = 20-89% control at 400 ppm) | +++ (+++ = 90-100% control at 100 ppm) | - (- = 0-19% control at 400 ppm) | - (- = 0-19% control at 400 ppm) | + (+ = 20-89% control at 400 ppm) | 0 | 0 | - (- = 0-19% control at 400 ppm) | 0 | – | – | – | – |
| Fc1cccc2c(NCCc3ccc4ccccc4c3)ncnc12 [Example 31, 8-fluoro-N-[2-(2-naphthyl)ethyl]-4-quinazolinamine] | 80 | + (+ = 20-89% control at 400 ppm) | +++ (+++ = 90-100% control at 100 ppm) | + (+ = 20-89% control at 400 ppm) | ++ (++ = 90-100% control at 400 ppm) | +++ (+++ = 90-100% control at 100 ppm) | - (- = 0-19% control at 400 ppm) | +++ (+++ = 90-100% control at 100 ppm) | 40 | 0 | - (- = 0-19% control at 400 ppm) | 0 | 30 | 0 | 0 | 0 |
| CC(=O)N(CCc1ccc(-c2ccccc2)cc1)c1ncnc2ccccc12 [Example 108, N-[2-(1,1'-biphenyl)-4-ylethyl]-N-(4-quinazolinyl)acetamide] | 0 | ++ (++ = 90-100% control at 400 ppm) | +++ (+++ = 90-100% control at 100 ppm) | + (+ = 20-89% control at 400 ppm) | +++ (+++ = 90-100% control at 100 ppm) | +++ (+++ = 90-100% control at 100 ppm) | - (- = 0-19% control at 400 ppm) | + (+ = 20-89% control at 400 ppm) | 30 | 0 | - (- = 0-19% control at 400 ppm) | 60 | 0 | 20 | 0 | 90 |
| CC(CNc1nc(NCC(C)c2ccccc2)c2ccccc2n1)c1ccccc1 (centres unmarked) [Example 27, N,N'-bis(2-phenylpropyl)-2,4-quinazolinediamine] | 0 | - (- = 0-19% control at 400 ppm) | + (+ = 20-89% control at 400 ppm) | - (- = 0-19% control at 400 ppm) | +++ (+++ = 90-100% control at 100 ppm) | + (+ = 20-89% control at 400 ppm) | - (- = 0-19% control at 400 ppm) | + (+ = 20-89% control at 400 ppm) | 0 | 0 | - (- = 0-19% control at 400 ppm) | 0 | – | – | – | – |
| c1ccc(-c2ccc(CCNc3ncnc4ccccc34)cc2)cc1 [Example 106, N-[2-(1,1'-biphenyl)-4-ylethyl]-4-quinazolinamine] | 90 | + (+ = 20-89% control at 400 ppm) | +++ (+++ = 90-100% control at 100 ppm) | +++ (+++ = 90-100% control at 100 ppm) | +++ (+++ = 90-100% control at 100 ppm) | +++ (+++ = 90-100% control at 100 ppm) | +++ (+++ = 90-100% control at 100 ppm) | +++ (+++ = 90-100% control at 100 ppm) | 0 | 0 | - (- = 0-19% control at 400 ppm) | 100 | 80 | 80 | 0 | 80 |
| c1csc(CCOc2ncnc3ccccc23)c1 [Example 54, 4-[2-(2-thienyl)ethoxy]quinazoline] | 0 | + (+ = 20-89% control at 400 ppm) | ++ (++ = 90-100% control at 400 ppm) | ++ (++ = 90-100% control at 400 ppm) | ++ (++ = 90-100% control at 400 ppm) | + (+ = 20-89% control at 400 ppm) | + (+ = 20-89% control at 400 ppm) | ++ (++ = 90-100% control at 400 ppm) | 0 | 0 | - (- = 0-19% control at 400 ppm) | 0 | – | – | – | – |
| CC(Cc1ccccc1)Nc1nc(NC(C)Cc2ccccc2)c2ccccc2n1 (centres unmarked) [Example 26, N,N'-bis(1-methyl-2-phenylethyl)-2,4-quinazolinediamine] | 0 | + (+ = 20-89% control at 400 ppm) | ++ (++ = 90-100% control at 400 ppm) | - (- = 0-19% control at 400 ppm) | +++ (+++ = 90-100% control at 100 ppm) | + (+ = 20-89% control at 400 ppm) | - (- = 0-19% control at 400 ppm) | ++ (++ = 90-100% control at 400 ppm) | 0 | 0 | - (- = 0-19% control at 400 ppm) | 0 | – | – | – | – |
| Cc1ccc(CCNc2nc(NCCc3ccc(C)cc3)c3ccccc3n2)cc1 [Example 28, N,N'-bis[2-(4-methylphenyl)ethyl]-2,4-quinazolinediamine] | 0 | - (- = 0-19% control at 400 ppm) | + (+ = 20-89% control at 400 ppm) | - (- = 0-19% control at 400 ppm) | + (+ = 20-89% control at 400 ppm) | - (- = 0-19% control at 400 ppm) | - (- = 0-19% control at 400 ppm) | ++ (++ = 90-100% control at 400 ppm) | 0 | 0 | - (- = 0-19% control at 400 ppm) | 0 | – | – | – | – |
| COc1ccccc1CCNc1nc(NCCc2ccccc2OC)c2ccccc2n1 [Example 25, N,N'-bis[2-(2-methoxyphenyl)ethyl]-2,4-quinazolinediamine] | 0 | - (- = 0-19% control at 400 ppm) | + (+ = 20-89% control at 400 ppm) | - (- = 0-19% control at 400 ppm) | ++ (++ = 90-100% control at 400 ppm) | - (- = 0-19% control at 400 ppm) | - (- = 0-19% control at 400 ppm) | + (+ = 20-89% control at 400 ppm) | 0 | 0 | – | 0 | – | – | – | – |
